Experimental data taken from ChEMBL document CHEMBL1145288, “5-substituted, 6-substituted, and unsubstituted 3-heteroaromatic pyridine analogues of nicotine as selective inhibitors of cytochrome P-450 2A6” (J Med Chem, 2005).

What was measured:
Cytochrome P450 2A6 [1] = target: T1, Cytochrome P450 2A6 (Homo sapiens, UniProt P11509); experiment: Effect on coumarin 7-hydroxylation by human Cytochrome P-450 2A6
T1 sequence (P11509 whole entry): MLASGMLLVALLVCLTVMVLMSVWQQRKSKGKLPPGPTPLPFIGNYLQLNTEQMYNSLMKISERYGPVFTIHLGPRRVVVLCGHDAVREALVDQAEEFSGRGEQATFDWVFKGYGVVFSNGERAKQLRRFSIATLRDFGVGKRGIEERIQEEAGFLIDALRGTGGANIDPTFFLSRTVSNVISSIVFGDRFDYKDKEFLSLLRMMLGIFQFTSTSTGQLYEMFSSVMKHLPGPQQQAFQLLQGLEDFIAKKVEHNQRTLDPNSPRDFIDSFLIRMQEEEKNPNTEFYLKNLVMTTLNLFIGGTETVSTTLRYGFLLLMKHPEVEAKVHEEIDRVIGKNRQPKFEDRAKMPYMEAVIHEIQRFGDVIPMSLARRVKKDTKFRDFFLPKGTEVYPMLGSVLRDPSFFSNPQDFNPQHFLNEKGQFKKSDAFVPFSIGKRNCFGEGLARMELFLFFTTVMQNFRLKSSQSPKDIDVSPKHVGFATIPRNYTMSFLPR

CYP2D6 versus CYP2A6 = experiment: Ratio of inhibition of human cytochrome P-450 2D6 to 2A6 was determined; Expressed as IC50(CYP2D6)/IC50(CYP2A6)
Cytochrome P450 2C19 = Cytochrome P450 2C19 (Homo sapiens, UniProt P33261); experiment: Inhibitory concentration value against human cytochrome P-450 2C19
Cytochrome P450 2C19, sequence (P33261 whole entry): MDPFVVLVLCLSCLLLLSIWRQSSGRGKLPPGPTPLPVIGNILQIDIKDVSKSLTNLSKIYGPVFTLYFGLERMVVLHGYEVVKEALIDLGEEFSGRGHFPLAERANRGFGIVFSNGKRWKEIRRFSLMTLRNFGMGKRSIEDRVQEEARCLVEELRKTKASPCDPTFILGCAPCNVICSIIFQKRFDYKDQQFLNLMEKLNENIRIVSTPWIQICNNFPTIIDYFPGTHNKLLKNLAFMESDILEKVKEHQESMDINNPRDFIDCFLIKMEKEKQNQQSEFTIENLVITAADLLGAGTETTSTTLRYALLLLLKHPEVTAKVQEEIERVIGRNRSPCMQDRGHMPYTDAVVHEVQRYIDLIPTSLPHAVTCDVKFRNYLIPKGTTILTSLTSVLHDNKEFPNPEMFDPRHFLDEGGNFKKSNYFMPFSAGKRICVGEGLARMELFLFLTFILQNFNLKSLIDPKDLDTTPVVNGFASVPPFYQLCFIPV

Cytochrome P450 2A6 [2] = target: T1, Cytochrome P450 2A6; experiment: Inhibitory concentration value against human cytochrome P-450 2A6
Cytochrome P450 2B6 = target: T2, Cytochrome P450 2B6 (Homo sapiens, UniProt P20813); experiment: Inhibitory concentration value against human cytochrome P-450 2B6
T2 sequence (P20813 whole entry): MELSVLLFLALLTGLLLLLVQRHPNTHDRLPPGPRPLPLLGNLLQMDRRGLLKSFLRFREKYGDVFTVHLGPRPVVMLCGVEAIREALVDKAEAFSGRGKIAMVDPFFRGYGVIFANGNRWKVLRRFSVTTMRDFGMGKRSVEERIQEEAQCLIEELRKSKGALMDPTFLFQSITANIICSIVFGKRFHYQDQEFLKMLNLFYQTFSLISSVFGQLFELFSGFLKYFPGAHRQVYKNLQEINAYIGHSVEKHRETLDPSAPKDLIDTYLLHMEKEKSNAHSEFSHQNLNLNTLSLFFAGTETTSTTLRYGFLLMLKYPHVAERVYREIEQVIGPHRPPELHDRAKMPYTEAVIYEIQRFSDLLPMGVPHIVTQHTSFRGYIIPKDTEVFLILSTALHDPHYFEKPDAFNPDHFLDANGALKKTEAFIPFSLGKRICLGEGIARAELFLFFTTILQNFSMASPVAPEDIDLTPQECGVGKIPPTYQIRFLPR

Cytochrome P450 2C9 = Cytochrome P450 2C9 (Homo sapiens, UniProt P11712); experiment: Inhibitory concentration against human cytochrome P-450 2C9
Cytochrome P450 2C9, sequence (P11712 whole entry): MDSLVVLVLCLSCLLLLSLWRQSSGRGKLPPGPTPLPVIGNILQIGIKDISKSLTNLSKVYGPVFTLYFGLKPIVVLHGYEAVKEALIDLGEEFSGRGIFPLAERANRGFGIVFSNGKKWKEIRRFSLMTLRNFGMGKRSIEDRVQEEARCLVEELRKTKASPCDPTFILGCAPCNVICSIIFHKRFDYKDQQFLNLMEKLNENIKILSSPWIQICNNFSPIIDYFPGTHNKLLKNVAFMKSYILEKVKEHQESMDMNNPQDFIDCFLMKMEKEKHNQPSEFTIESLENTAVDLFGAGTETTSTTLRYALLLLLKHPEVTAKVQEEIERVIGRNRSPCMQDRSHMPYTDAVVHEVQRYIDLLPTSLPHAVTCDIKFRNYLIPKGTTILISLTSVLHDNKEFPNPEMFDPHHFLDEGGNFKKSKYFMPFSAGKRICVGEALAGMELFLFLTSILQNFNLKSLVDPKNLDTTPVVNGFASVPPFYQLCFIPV

Cytochrome P450 2D6 = Cytochrome P450 2D6 (Homo sapiens, UniProt P10635); experiment: Inhibitory concentration value against human cytochrome P-450 2D6
Cytochrome P450 2D6, sequence (P10635 whole entry): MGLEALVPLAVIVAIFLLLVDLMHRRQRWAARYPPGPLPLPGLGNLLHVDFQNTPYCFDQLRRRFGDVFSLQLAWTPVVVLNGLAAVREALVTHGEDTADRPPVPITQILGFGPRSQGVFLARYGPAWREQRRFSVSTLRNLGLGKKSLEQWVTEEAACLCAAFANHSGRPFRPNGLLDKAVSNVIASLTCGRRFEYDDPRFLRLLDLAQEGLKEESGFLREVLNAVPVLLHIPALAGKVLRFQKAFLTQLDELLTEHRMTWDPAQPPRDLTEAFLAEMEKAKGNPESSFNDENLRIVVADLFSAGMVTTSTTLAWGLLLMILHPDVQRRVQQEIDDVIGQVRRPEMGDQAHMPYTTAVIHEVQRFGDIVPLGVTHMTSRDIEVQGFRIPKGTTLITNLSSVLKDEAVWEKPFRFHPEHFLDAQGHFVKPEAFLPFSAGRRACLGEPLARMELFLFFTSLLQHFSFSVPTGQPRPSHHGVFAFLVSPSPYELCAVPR

Cytochrome P450 2E1 = Cytochrome P450 2E1 (Homo sapiens, UniProt P05181); experiment: Inhibitory concentration value against human cytochrome P-450 2E1
Cytochrome P450 2E1, sequence (P05181 whole entry): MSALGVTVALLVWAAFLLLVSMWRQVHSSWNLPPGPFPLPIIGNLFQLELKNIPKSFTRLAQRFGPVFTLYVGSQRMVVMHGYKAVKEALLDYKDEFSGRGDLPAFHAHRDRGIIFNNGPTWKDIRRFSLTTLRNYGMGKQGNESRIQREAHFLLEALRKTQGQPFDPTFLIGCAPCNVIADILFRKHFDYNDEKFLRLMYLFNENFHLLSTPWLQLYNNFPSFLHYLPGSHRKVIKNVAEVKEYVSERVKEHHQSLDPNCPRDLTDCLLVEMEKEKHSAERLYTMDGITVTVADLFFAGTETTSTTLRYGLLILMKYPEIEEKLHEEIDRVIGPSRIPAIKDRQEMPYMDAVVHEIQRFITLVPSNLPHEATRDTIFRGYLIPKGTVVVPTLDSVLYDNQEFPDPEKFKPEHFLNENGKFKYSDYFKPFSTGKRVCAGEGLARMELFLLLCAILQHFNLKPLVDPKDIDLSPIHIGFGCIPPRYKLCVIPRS

Cytochrome P450 3A4 = Cytochrome P450 3A4 (Homo sapiens, UniProt P08684); experiment: Inhibitory concentration value against human cytochrome P-450 3A4
Cytochrome P450 3A4, sequence (P08684 whole entry): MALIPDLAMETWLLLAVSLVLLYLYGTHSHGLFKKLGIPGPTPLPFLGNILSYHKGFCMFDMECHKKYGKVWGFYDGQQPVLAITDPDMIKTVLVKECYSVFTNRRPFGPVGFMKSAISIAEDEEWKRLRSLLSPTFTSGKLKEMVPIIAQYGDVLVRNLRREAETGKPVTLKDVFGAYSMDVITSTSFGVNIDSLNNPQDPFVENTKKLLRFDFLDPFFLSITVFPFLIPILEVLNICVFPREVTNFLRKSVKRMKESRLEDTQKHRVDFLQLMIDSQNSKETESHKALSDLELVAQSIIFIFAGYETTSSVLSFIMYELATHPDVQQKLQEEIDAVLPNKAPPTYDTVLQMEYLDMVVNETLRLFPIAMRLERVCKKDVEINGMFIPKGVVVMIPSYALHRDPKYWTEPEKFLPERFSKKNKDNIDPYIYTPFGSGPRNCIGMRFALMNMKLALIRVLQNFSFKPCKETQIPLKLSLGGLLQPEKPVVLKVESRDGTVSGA

CYP2C9 versus CYP2A6 = experiment: Ratio of inhibition of human cytochrome P-450 2C9 to 2A6 was determined; Expressed as IC50(CYP2C9)/IC50(CYP2A6)
CYP3A4 versus CYP2A6 = experiment: Ratio of inhibition of human cytochrome P-450 3A4 to 2A6 was determined; Expressed as IC50(CYP3A4)/IC50(CYP2A6)
CYP2C19 versus CYP2A6 = experiment: Ratio of inhibition of human cytochrome P-450 2C19 to 2A6 was determined; Expressed as IC50(CYP2C19)/IC50(CYP2A6)
CYP2B6 versus CYP2A6 = experiment: Ratio of inhibition of human cytochrome P-450 2B6 to 2A6 was determined; Expressed as IC50(CYP2B6)/IC50(CYP2A6)
CYP2E1 versus CYP2A6 = experiment: Ratio of inhibition of human cytochrome P-450 2E1 to 2A6 was determined; Expressed as IC50(CYP2E1)/IC50(CYP2A6)

Compound	Ki (Cytochrome P450 2A6 [1]) [µM]	IC50 (Cytochrome P450 2C19) [µM]	IC50 (Cytochrome P450 2B6) [µM]	IC50 (Cytochrome P450 2C9) [µM]	IC50 (Cytochrome P450 2D6) [µM]	IC50 (Cytochrome P450 2E1) [µM]	also measured
CNCC#Cc1cccnc1	0.89						
Clc1ccc(-c2cccnc2)cn1	6.3						
NCc1ccc(-c2cccnc2)o1							selectivity ratio (CYP2D6 versus CYP2A6): 4.1
Cc1ccsc1-c1cncc(Br)c1	1.5						
O/N=C\c1ccc(-c2cccnc2)o1	13.7	279	128	398	> 400	> 400	IC50 (Cytochrome P450 2A6 [2]): 4.2 µM; IC50 (Cytochrome P450 3A4): > 400 µM; selectivity ratio (CYP2C9 versus CYP2A6): 94; selectivity ratio (CYP2D6 versus CYP2A6): > 95; selectivity ratio (CYP3A4 versus CYP2A6): > 95; selectivity ratio (CYP2C19 versus CYP2A6): 66
Brc1cncc(-c2ccsc2)c1	4.5						
O/N=C/c1ccc(-c2cccnc2)s1	0.24	37.2	214	223	191	4.2	IC50 (Cytochrome P450 2A6 [2]): 1.4 µM; selectivity ratio (CYP2B6 versus CYP2A6): 153; selectivity ratio (CYP2C9 versus CYP2A6): 159; selectivity ratio (CYP2D6 versus CYP2A6): 136; selectivity ratio (CYP2E1 versus CYP2A6): 3; selectivity ratio (CYP3A4 versus CYP2A6): 9.3; selectivity ratio (CYP2C19 versus CYP2A6): 27
O/N=C/c1ccc(-c2cccnc2)o1	0.71	118	372	86.2	> 400	> 400	IC50 (Cytochrome P450 3A4): > 400 µM; selectivity ratio (CYP2C9 versus CYP2A6): 1; selectivity ratio (CYP2C19 versus CYP2A6): 1.4
N=Cc1ccc(-c2cccnc2)s1.N=Cc1ccc(-c2cccnc2)s1.NCc1ccc(-c2cccnc2)s1			256		197	77.5	IC50 (Cytochrome P450 2A6 [2]): 3.7 µM; IC50 (Cytochrome P450 3A4): 77.5 µM
O=Cc1ccc(-c2cccnc2)o1	≥ 67						
c1cncc(-c2ccc(CNCc3ccc(-c4cccnc4)s3)s2)c1							IC50 (Cytochrome P450 3A4): > 400 µM
Cc1cn(-c2cccnc2)cn1	0.17	> 300	> 300	> 300	297	57.9	IC50 (Cytochrome P450 2A6 [2]): 1 µM
NCc1ccc(-c2cccnc2)cc1	1.4						
Fc1ccc(-c2ccsc2)cn1	0.97	182	72.1	> 400	199	7.2	IC50 (Cytochrome P450 2A6 [2]): 5.8 µM; IC50 (Cytochrome P450 3A4): 114 µM; selectivity ratio (CYP2B6 versus CYP2A6): 12; selectivity ratio (CYP2C9 versus CYP2A6): > 69; selectivity ratio (CYP2D6 versus CYP2A6): 34; selectivity ratio (CYP2E1 versus CYP2A6): 1.2; selectivity ratio (CYP3A4 versus CYP2A6): 20; selectivity ratio (CYP2C19 versus CYP2A6): 31
Cc1cccnc1-c1cccnc1	43.7						
c1cncc(-n2cnnn2)c1	≥ 67						
C[n+]1c[nH]cc1-c1cccnc1	0.13	122	146	79.5	217	4.1	IC50 (Cytochrome P450 2A6 [2]): 0.75 µM; IC50 (Cytochrome P450 3A4): 262 µM; selectivity ratio (CYP2B6 versus CYP2A6): 195; selectivity ratio (CYP2C9 versus CYP2A6): 106; selectivity ratio (CYP2D6 versus CYP2A6): 289; selectivity ratio (CYP2E1 versus CYP2A6): 5; selectivity ratio (CYP3A4 versus CYP2A6): 349; selectivity ratio (CYP2C19 versus CYP2A6): 163
O/N=C/c1ccc(-c2cccnc2)o1.O/N=C\c1ccc(-c2cccnc2)o1					> 400		
CNc1ccc(-c2cccnc2)s1	0.59	3.2	6.8	2.1	14.4	31.1	IC50 (Cytochrome P450 2A6 [2]): 3.5 µM; IC50 (Cytochrome P450 3A4): 6.3 µM; selectivity ratio (CYP2B6 versus CYP2A6): 1.9; selectivity ratio (CYP2C9 versus CYP2A6): 0.6; selectivity ratio (CYP2D6 versus CYP2A6): 4.1; selectivity ratio (CYP2E1 versus CYP2A6): 8.9; selectivity ratio (CYP3A4 versus CYP2A6): 2; selectivity ratio (CYP2C19 versus CYP2A6): 0.9
Cc1ccc(-c2cccnc2)nc1	2.7						

Compound	Ki (Cytochrome P450 2A6 [1]) [µM]	IC50 (Cytochrome P450 2C19) [µM]	IC50 (Cytochrome P450 2B6) [µM]	IC50 (Cytochrome P450 2C9) [µM]	IC50 (Cytochrome P450 2D6) [µM]	IC50 (Cytochrome P450 2E1) [µM]	also measured
O=[N+]([O-])c1ccc(-c2cccnc2)s1	19.7						
c1cncc(-c2cccs2)c1		178	70.8	99.2	> 400	4.1	
Cc1ccsc1-c1ccc(F)nc1	0.21						
COc1ccc(-c2cscc2C)cn1	6.6						
c1cncc(-c2cncnc2)c1	27.4						
c1cncc(-c2cccnc2)c1		> 300		> 300	> 300	> 300	
COc1ccc(-c2sccc2C)cn1	≥ 67						
Cc1ccnc(-c2cccnc2)c1	5.1						
Cc1nc(-c2cccnc2)c[nH]1	6.2						
Cn1cnc(-c2cccnc2)c1	0.13	122	146	79.5	217	4.1	selectivity ratio (CYP2D6 versus CYP2A6): 289
c1cncc(-c2ccsc2)c1	0.22	111	59.1	96.3	248	> 400	IC50 (Cytochrome P450 2A6 [2]): 1.4 µM; IC50 (Cytochrome P450 3A4): 56.9 µM; selectivity ratio (CYP2B6 versus CYP2A6): 42; selectivity ratio (CYP2C9 versus CYP2A6): 69; selectivity ratio (CYP2D6 versus CYP2A6): 177; selectivity ratio (CYP2E1 versus CYP2A6): > 286; selectivity ratio (CYP3A4 versus CYP2A6): 400; selectivity ratio (CYP2C19 versus CYP2A6): 81
CCn1cnc(-c2cccnc2)c1	0.52	46.4	83.1	75.2	344	80	IC50 (Cytochrome P450 3A4): 79.2 µM; selectivity ratio (CYP2B6 versus CYP2A6): 26; selectivity ratio (CYP2C9 versus CYP2A6): 24; selectivity ratio (CYP2D6 versus CYP2A6): 111; selectivity ratio (CYP2E1 versus CYP2A6): 26; selectivity ratio (CYP3A4 versus CYP2A6): 26; selectivity ratio (CYP2C19 versus CYP2A6): 15
Cc1cncc(-c2cscc2C)c1	0.17						
CC(=O)c1ccc(-c2cccnc2)s1	1.4	62.7	217	98.2	387	> 400	selectivity ratio (CYP2B6 versus CYP2A6): 25; selectivity ratio (CYP2C9 versus CYP2A6): 11; selectivity ratio (CYP2D6 versus CYP2A6): 45; selectivity ratio (CYP2E1 versus CYP2A6): > 46; selectivity ratio (CYP3A4 versus CYP2A6): 3.1; selectivity ratio (CYP2C19 versus CYP2A6): 7
Cc1cccc(-c2cccnc2)n1	9.8						
c1cncc(-c2nccs2)c1	3.2						
Cc1cscc1-c1ccc(F)nc1				> 400			
CN1CCC[C@H]1c1cccnc1 [NICOTINE]	4.4						
c1ccc(-c2cccnc2)nc1 [[2,3'']Bipyridinyl]	7.7						
